# Legend:
# [1] = tested on: A2780 intracellular CTD pSer2; assay: CTD pSer2 measurement using human ovarian cancer cell A2780 and In-Cell Western method; assay type: cell-based; conditions: inhibitory rate against A2780 intracellular CTD pSer2 at 1 μM test compound, 4 hr
# Method: Experimental Example 3: CTD pSer2 Measurement Using Human Ovarian Cancer Cell A2780 and In-Cell Western Method
# A2780 cells (ATCC) were seeded in a 96 well plate at 1.8×10^4 cells/well, and the cells were cultured overnight in a cell culture medium RPMI1640 (FUJIFILM Wako Pure Chemical Corporation) containing 10% FBS (fetal bovine serum) and 1% penicillin/streptomycin. A test compound dissolved in a cell medium was added, and the mixture was stood for 4 hr in a CO2 incubator (37° C.). The cells were fixed with ALTFiX (Falma) for 30 min, and washed 3 times with a washing buffer (20 mM Tris-HCl (pH 7.5), 500 mM NaCl, 0.1% Tween20). 0.1% Triton-X-100 diluted with PBS(−) was added and the mixture was incubated at room temperature for 15 min. Thereafter, a blocking buffer (LI-COR) was added, and the mixture was incubated at room temperature for 1 hr. An anti-CTD pS2 antibody (Abcam) suspended in an antibody diluent (blocking buffer: PBS(−)-diluted 0.1% Tween20=1:1) was added, and the mixture was incubated at room temperature for 1 hr. The mixture was […] with a washing buffer, IRDye800CW-labeled anti-goat antibody (LI-COR) was added, and the mixture was incubated at room temperature for 1 hr. The mixture was washed 3 times with a washing buffer, and the fluorescence wavelength at 800 nm was measured by Aerius (LI-COR).
# The inhibitory rate (%) of the test compound against A2780 intracellular CTD pSer2 was calculated by the following formula. Inhibitory rate (%)=(1−(count of test compound−blank)÷(control−blank))×100
# The count of the A2780 cell under compound non-addition conditions is indicated as control, and the count under compound non-addition and primary antibody non-addition conditions is indicated as blank.
# The results measured by the above-mentioned method (inhibitory rate of the signal value at 1 μM test compound relative to control) are shown below.
# CDK12/CycK complex = CDK12/CycK complex (Homo sapiens, UniProt Q9NYV4); assay: Measurement of CDK12 inhibitory activity by binding assay (TR-FRET, 66 nM BODIPY-FL-labeled AT-7519); conditions: inhibitory rate against CDK12 at 1 μM test compound, 66 nM BODIPY-FL-labeled AT-7519, 2 nM CDK12/CycK
# How it was run: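 His-tagged CDK12/CycK (2 nM) premixed with 66 nM BODIPY-FL-AT-7519 tracer, 0.2 nM Tb-streptavidin and 0.4 nM biotin-anti-His, then incubated with compound 120 min at room temperature. Tracer displacement read as BODIPY-FL/Tb TR-FRET ratio; percent inhibition normalized to no-compound control and 3 μM AT-7519 blank.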
# CDK12/CycK enzyme = CDK12/CycK enzyme (Homo sapiens, UniProt Q9NYV4); assay: Measurement of CDK12/CycK inhibitory activity (ULight-4E-BP1 peptide phosphorylation, LANCE); assay type: biochemical; conditions: inhibitory rate against CDK12/CycK at 1 μM test compound, ATP 10 μM or 500 μM
# Method: Experimental Example 2: Measurement of CDK12/CycK Inhibitory Activity
# A test compound dissolved in DMSO was added to a reaction solution (50 mM HEPES (pH 7.5), 10 mM MgCl2, 1 mM DTT, 0.01% Tween 20, 0.01% BSA) containing CDK12/CycK enzyme and ULight-labeled eIF4E-binding protein 1 (4E-BP1) (Thr37/Thr46) peptide (PerkinElmer), and the mixture was reacted at room temperature for 60 min. […] was added to give an ATP solution with a final concentration of 10 μM or 500 μM to start the enzyme reaction, and the mixture was reacted at room temperature for 60 min. A LANCE Detection buffer (PerkinElmer) containing europium-labeled anti-phosphorylation 4E-BP1 (Thr37/Thr46) antibody (PerkinElmer) and EDTA (final concentration 10 mM) was added to discontinue the reaction. After standing for 60 min, time decomposition fluorescence value (excitation 320 nm, emission 615 nm, 665 nm) was measured by Envision (PerkinElmer). The inhibitory rate (%) of the test compound against CDK12/CyclinK was calculated by the following formula. Inhibitory rate (%)=(1−(count of test compound−blank)÷(control−blank))×100
# The count of the CDK12 enzyme reaction mixture under compound non-addition conditions is indicated as control, and the count under compound non-addition and CDK12/CycK enzyme non-addition conditions is indicated as blank.
# The results measured by the above-mentioned method (inhibitory rate (%) of the signal value at 1 μM test compound relative to control is shown below.
# A2780 cells = assay: In vitro proliferation suppression test (CellTiter-Glo); assay type: cell-based, human; conditions: Homo sapiens, 72 h, A2780 cell proliferation inhibitory rate at 1 μM test compound, three days
# How it was run: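 A2780 cells in RPMI1640 with 10% FBS were exposed to 1 μM compound for three days at 37° C, 5% CO2. CellTiter-Glo luminescence read; inhibition (%) calculated relative to wells without compound.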
# CDK12/CycK complex, sequence (Q9NYV4 whole entry, species assumed): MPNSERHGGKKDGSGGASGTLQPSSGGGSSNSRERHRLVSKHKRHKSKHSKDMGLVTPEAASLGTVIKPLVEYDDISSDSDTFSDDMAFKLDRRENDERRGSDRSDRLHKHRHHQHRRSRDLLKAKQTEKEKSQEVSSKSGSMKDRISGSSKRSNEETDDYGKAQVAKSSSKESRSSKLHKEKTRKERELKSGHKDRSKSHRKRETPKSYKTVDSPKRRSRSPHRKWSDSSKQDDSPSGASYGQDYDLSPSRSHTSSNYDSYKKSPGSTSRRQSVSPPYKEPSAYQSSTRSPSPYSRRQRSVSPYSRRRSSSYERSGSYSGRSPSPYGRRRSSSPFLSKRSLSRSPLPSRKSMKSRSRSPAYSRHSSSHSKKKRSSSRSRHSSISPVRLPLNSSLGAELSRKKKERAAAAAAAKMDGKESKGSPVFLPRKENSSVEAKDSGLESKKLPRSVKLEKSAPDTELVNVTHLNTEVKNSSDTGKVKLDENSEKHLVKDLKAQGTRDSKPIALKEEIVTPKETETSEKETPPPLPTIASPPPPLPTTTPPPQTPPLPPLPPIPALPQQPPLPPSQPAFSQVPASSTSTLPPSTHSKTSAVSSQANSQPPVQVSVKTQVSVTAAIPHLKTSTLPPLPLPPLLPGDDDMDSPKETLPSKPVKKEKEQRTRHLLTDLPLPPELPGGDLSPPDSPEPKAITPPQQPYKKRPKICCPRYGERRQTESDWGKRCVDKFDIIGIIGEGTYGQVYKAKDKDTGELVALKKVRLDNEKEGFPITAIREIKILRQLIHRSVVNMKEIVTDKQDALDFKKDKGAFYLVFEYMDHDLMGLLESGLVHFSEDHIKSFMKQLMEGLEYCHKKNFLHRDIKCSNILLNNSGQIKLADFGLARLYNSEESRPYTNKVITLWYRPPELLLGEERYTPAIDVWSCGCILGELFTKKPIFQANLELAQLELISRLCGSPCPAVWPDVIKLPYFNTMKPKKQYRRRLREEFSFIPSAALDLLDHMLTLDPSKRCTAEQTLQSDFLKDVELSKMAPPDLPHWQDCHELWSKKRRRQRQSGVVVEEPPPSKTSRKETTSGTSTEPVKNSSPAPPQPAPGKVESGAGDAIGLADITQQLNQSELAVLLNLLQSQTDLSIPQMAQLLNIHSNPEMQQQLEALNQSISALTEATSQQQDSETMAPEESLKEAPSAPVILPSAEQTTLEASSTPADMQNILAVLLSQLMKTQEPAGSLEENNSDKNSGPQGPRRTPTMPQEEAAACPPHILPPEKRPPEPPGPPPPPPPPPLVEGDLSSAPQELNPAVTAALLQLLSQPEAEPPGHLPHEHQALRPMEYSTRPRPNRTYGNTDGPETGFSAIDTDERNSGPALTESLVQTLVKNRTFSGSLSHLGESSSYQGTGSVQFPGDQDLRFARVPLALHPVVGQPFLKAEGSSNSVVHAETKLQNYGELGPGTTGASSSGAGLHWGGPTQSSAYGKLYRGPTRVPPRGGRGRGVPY
# CDK12/CycK complex, sequence (O75909 whole entry partner, species assumed): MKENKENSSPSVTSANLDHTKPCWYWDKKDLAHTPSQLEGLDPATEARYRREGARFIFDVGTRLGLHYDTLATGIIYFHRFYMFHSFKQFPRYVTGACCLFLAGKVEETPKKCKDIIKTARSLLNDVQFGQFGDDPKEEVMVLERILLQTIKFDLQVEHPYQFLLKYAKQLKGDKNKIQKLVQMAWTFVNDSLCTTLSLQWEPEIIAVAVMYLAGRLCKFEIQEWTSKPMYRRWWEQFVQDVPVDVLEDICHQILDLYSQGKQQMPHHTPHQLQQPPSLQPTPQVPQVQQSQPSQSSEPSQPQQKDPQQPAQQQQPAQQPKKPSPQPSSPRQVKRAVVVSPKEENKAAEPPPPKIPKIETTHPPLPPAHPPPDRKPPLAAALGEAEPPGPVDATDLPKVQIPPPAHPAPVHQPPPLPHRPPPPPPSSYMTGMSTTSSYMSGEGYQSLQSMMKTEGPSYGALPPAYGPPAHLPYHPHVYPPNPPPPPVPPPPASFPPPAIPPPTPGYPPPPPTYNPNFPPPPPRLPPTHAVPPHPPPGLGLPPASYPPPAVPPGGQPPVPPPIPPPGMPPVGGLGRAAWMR
# CDK12/CycK enzyme, sequence (Q9NYV4 whole entry, species assumed): as the sequence (Q9NYV4 whole entry, species assumed) above
# CDK12/CycK enzyme, sequence (O75909 whole entry partner, species assumed): as the sequence (O75909 whole entry partner, species assumed) above
SMILES,inhibition at 1 µM [1],inhibition at 1 µM (CDK12/CycK complex),inhibition at 1 µM (CDK12/CycK enzyme),inhibition at 1 µM (A2780 cells)
"Cn1cc(-c2ccc(N(C(=O)NCc3ccccc3)[C@H]3CC[C@H](Nc4ncc(C#N)c(-c5cncc(S(C)(=O)=O)c5)n4)CC3)nc2)cn1 [Example 440, 3-benzyl-1-(trans-4-((5-cyano-4-(5-(methylsulfonyl)pyridin-3-yl)pyrimidin-2-yl)amino)cyclohexyl)-1-(5-(1-methyl-1H-pyrazol-4-yl)pyridin-2-yl) urea]",54%,99%,101%,98%
"COc1ncc(-c2ccc(N(C(=O)OCc3ccccc3)[C@H]3CC[C@H](Nc4ncc(C(F)(F)F)c(N5CC(F)(CO)C5)n4)CC3)nc2)cn1 [Example 600, benzyl (trans-4-((4-(3-fluoro-3-(hydroxymethyl)azetidin-1-yl)-5-(trifluoromethyl)pyrimidin-2-yl)amino)cyclohexyl) (5-(2-methoxypyrimidin-5-yl)pyridin-2-yl)carbamate]",81%,83%,108%,93%
"Cn1cc(-c2ccc(N(C(=O)NCc3ccccc3)[C@H]3CC[C@H](Nc4ncc(C(F)(F)F)c(NC5COC5)n4)CC3)nc2)cn1 [Example 574, 3-benzyl-1-(5-(1-methyl-1H-pyrazol-4-yl)pyridin-2-yl)-1-(trans-4-((4-(oxetan-3-ylamino)-5-(trifluoromethyl)pyrimidin-2-yl)amino)cyclohexyl)urea]",83%,103%,99%,97%
"COc1ncc(-c2ccc(N(C(=O)NCc3ccccn3)[C@H]3CC[C@H](Nc4ncc(C(F)(F)F)c(OC5COC5)n4)CC3)nc2)cn1 [Example 610, 1-(5-(2-methoxypyrimidin-5-yl)pyridin-2-yl)-1-(trans-4-((4-(oxetan-3-yloxy)-5-(trifluoromethyl)pyrimidin-2-yl)amino)cyclohexyl)-3-(pyridin-2-ylmethyl)urea]",49%,103%,99%,98%
"Cn1cc(-c2ccc(N(C(=O)NCc3ccccc3)[C@H]3CC[C@H](Nc4ncc(C#N)c(-c5[nH]ncc5Cl)n4)CC3)nc2)cn1 [Example 536, 3-benzyl-1-(trans-4-((4-(4-chloro-1H-pyrazol-5-yl)-5-cyanopyrimidin-2-yl)amino)cyclohexyl)-1-(5-(1-methyl-1H-pyrazol-4-yl)pyridin-2-yl)urea]",82%,96%,95%,91%
"COc1ncc(-c2ccc(N(C(=O)NCc3ccccc3)[C@H]3CC[C@H](Nc4ncc(C(F)(F)F)c(NC5COC5)n4)CC3)nc2)cn1 [Example 589, 3-benzyl-1-(5-(2-methoxypyrimidin-5-yl)pyridin-2-yl)-1-(trans-4-((4-(oxetan-3-ylamino)-5-(trifluoromethyl)pyrimidin-2-yl)amino)cyclohexyl) urea]",78%,100%,115%,97%
"Cn1cc(-c2ccc(N(C(=O)NCc3ccccc3)[C@H]3CC[C@H](Nc4ncc(C#N)c(NC5COC5)n4)CC3)nc2)cn1 [Example 319, 3-benzyl-1-(trans-4-((5-cyano-4-(oxetan-3-ylamino)pyrimidin-2-yl)amino)cyclohexyl)-1-(5-(1-methyl-1H-pyrazol-4-yl)pyridin-2-yl)urea]",69%,94%,98%,97%
"COc1ncc(-c2cnc(N(C(=O)OCc3ccccc3)[C@H]3CC[C@H](Nc4ncc(C#N)c(N5CCCC(O)CC5)n4)CC3)nc2)cn1 (stereo partly drawn) [Example 611, benzyl (trans-4-((5-cyano-4-(4-hydroxyazepan-1-yl)pyrimidin-2-yl)amino)cyclohexyl) (2′-methoxy-5,5′-bipyrimidin-2-yl)carbamate]",48%,101%,101%,97%
"Cn1cc(-c2ccc(N(C(=O)NCc3ccccc3)[C@H]3CC[C@H](Nc4ncc(C#N)c(NC5COC5)n4)CC3)cc2)cn1 [Example 527, 3-benzyl-1-(trans-4-((5-cyano-4-(oxetan-3-ylamino)pyrimidin-2-yl)amino)cyclohexyl)-1-(4-(1-methyl-1H-pyrazol-4-yl)phenyl)urea]",70%,102%,99%,97%
"COc1ncc(-c2cnc(N(C(=O)OCc3ccccc3)[C@H]3CC[C@H](Nc4ncc(C#N)c(NC5COC5)n4)CC3)nc2)cn1 [Example 608, benzyl (trans-4-((5-cyano-4-(oxetan-3-ylamino)pyrimidin-2-yl)amino)cyclohexyl) (2′-methoxy-5,5′-bipyrimidin-2-yl)carbamate]",44%,98%,102%,99%
"Cn1cc(-c2cnc(N(C(=O)NCc3ccccc3)[C@H]3CC[C@H](Nc4ncc(C#N)c(NC5COC5)n4)CC3)nc2)cn1 [Example 575, 3-benzyl-1-(trans-4-((5-cyano-4-(oxetan-3-ylamino)pyrimidin-2-yl)amino)cyclohexyl)-1-(5-(1-methyl-1H-pyrazol-4-yl)pyrimidin-2-yl)urea]",63%,101%,97%,99%
"COc1ncc(-c2ccc(N(C(=O)OCc3ccccc3)[C@H]3CC[C@H](Nc4ncc(C#N)c(N5CC(F)(CO)C5)n4)CC3)nc2)cn1 [Example 603, benzyl (trans-4-((5-cyano-4-(3-fluoro-3-(hydroxymethyl)-azetidin-1-yl)pyrimidin-2-yl)amino)cyclohexyl) (5-(2-methoxypyrimidin-5-yl)pyridin-2-yl)carbamate]",81%,76%,103%,93%
"COc1ncc(-c2ccc(N(C(=O)NCc3ccccc3)[C@H]3CC[C@H](Nc4ncc(C#N)c(-c5cn[nH]c5C)n4)CC3)nc2)cn1 [Example 577, 3-benzyl-1-(trans-4-((5-cyano-4-(5-methyl-1H-pyrazol-4-yl)pyrimidin-2-yl)amino)cyclohexyl)-1-(5-(2-methoxypyrimidin-5-yl)pyridin-2-yl)urea]",87%,88%,98%,94%
"COc1ncc(-c2ccc(N(C(=O)NCc3ccccc3)[C@H]3CC[C@H](Nc4ncc(C#N)c(NC5COC5)n4)CC3)nc2)cn1 [Example 553, 3-benzyl-1-(trans-4-((5-cyano-4-(oxetan-3-ylamino)pyrimidin-2-yl)amino)cyclohexyl)-1-(5-(2-methoxypyrimidin-5-yl)pyridin-2-yl)urea]",74%,100%,106%,98%

# From patent US11584737B2, “Heterocyclic compound” (TAKEDA PHARMACEUTICAL COMPANY LIMITED, priority 2018, dated 2023)
